For assay [1], the target named is T1, BTK (Homo sapiens (Human), UniProt Q06187). The assay can be described thus: Time-dependent inhibition of BTK (HTRF). To be noted: pre-incubation 0-45 min; for Time-dependent inhibition of BTK: product formation versus pre-incubation time: mono-exponential decay fit. The assay is classed as biochemical. How it is done: For the time-dependent inhibition experiments, the activity of BTK kinases was monitored using a HTRF® KinEASE-TK kit from Cisbio (62TK0PEC) as described above. […] The pre incubation times were 0, 1, 3, 5, 10, 15, 30 and 45 min. After the preincubation, reaction was initiated by adding biotinylated substrate and ATP and the reaction was allowed to proceed for 45 min. […] After 60 min of incubation, the fluorescence emission was measured at 620 nm and 665 nm. The ratio of Em 665 nm to Em 620 nm was proportional to the amount of substrate phosphorylated by the kinase. Product formation vs pre-incubation time data were fitted to a one phase exponential decay equation using GraphPad Prism. The same product formation vs inhibitor concentration data were also fitted to a log(antagonist) vs. response—Variable slope equation in GraphPad Prism to provide IC50 values at different pre incubation times.
(In TR-FRET formats the signal depends on donor and acceptor labels being close together.)

In the next assay the target is RIPK2 (Homo sapiens (Human), UniProt O43353). As to the kind of experiment: In vitro RIPK2 inhibition. Format: biochemical. The following applies: for remaining activity at 1 µM: read-out: % RIPK2 Remaining activity vs DMSO (1 μM, 3 h); for remaining activity at 10 µM: read-out: % RIPK2 Remaining activity vs DMSO (10 μM, 3 h).
For assay [2], the target named is T1, BTK. As to the kind of experiment: Ramos RA1 cell lysis and immunoassay, phospho-BTK (Y223) inhibition. Format: cell-based. On the set-up: key: X: BTK bound and autophosphoration of BTK inhibited in cells. To be noted: RAMOS cells, compound concentration 1 μM. The essentials: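 Ramos RA1 cells treated with compound or DMSO for 24 h at 37° C., lysed in RIPA, analysed by Simple Western. Total BTK normalised to β-actin, pBTK (Y223) to total-protein reagent; both expressed relative to DMSO control.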

For a further assay, the target named is EGFR (Homo sapiens (Human), UniProt P00533). As to the kind of experiment: A549 cell lysis and immunoassay, total EGFR degradation. Format: cell-based. On the set-up: key: Y: EGFR bound in cells and EGFR degradation occurred. To be noted: A549 cells. The protocol: A549 cells (ATCC) were cultured in Dulbecco's Modified Eagle's Medium (DMEM) (Wisent) supplemented with 10% FBS and 1% penicillin/streptomycin. Cells were seeded in 6-well plates at 530,000 cells/well and incubated at 37° C., 5% CO2 for 16 hours. Cells were starved in DMEM containing 1% FBS for 4 hours before they were treated with the indicated concentrations of compound or DMSO alone and incubated at 37° C., 5% CO2 for 24 hours. Prior to cell harvest and lysis, 50 ng/ml human epidermal growth factor (hEGF) (Sigma) was added to the cells and incubated at 37° C., 5% CO2 for 10 minutes. Conditioned media was discarded, and adherent cells were washed with PBS before they were scraped on ice. Cell suspensions were centrifugated at 2,000 RPM for 5 minutes at 4° C. and supernatants were discarded. Cell pellets were resuspended with 1× RIPA buffer (Millipore) and incubated on ice for 15 minutes. Protein lysates were extracted by centrifugating at 20,000 RPM for 20 minutes at 4° C. Proteins were separated and total EGFR protein levels were quantified by Simple Western Immunoassay (ProteinSimple) using the Protein Normalization Assay Module for Jess according to the manufacturer's protocol, using a protein concentration of 0.125 μg/μl and an antibody targeting EGFR (clone #EP38Y, Abcam) diluted to 1:400. Phosphorylated EGFR protein levels were quantified with the same assay using a protein concentration of 1 μg/μl and an antibody targeting pEGFR (Y1068) (Cell Signalling) diluted to 1:25. EGFR and phosphorylated EGFR levels were normalized to the Jess Protein Normalization Reagent loading control and subsequently to the DMSO control.

Assay [3] deals with T1, BTK. The assay can be described thus: Ramos RA1 cell lysis and immunoassay, total BTK degradation. Format: cell-based. The arrangement: key to % BTK degradation (RAMOS, 24 h): Y: BTK bound in cells and BTK degradation occurred; concentration or dose not given beside the values. The following applies: RAMOS cells. How it is done:
Ramos RA 1 cells (ATCC) were cultured in RPMI-1640 media (Wisent) supplemented with 10% heat-inactivated FBS and 1% penicillin/streptomycin. Cells were seeded in 6-well plates at 1.71×10^6 cells/well and incubated at 37° C., 5% CO2 for 16 hours. Cells were treated with compound at the indicated concentrations or DMSO alone and incubated at 37° C., 5% CO2 for 24 hours. Cell suspensions were centrifugated at 1,400-1,600 RPM for 5 minutes at room temperature and supernatants were discarded. Cell pellets were resuspended with 1× RIPA buffer (Millipore) and incubated on ice for 15 minutes. Protein lysates were extracted by centrifugating at 20,000 RPM for 20 minutes at 4° C. Proteins were separated and total BTK protein levels were quantified by Simple Western Immunoassay (ProteinSimple) using the 12-230 kDa Jess Separation Module according to the manufacturer's protocol, using a protein concentration of 0.25 μg/μl and antibodies targeting BTK (clone #D3H5, Cell Signalling) and β-Actin (clone #AC-15, Santa Cruz) diluted to 1:400 and 1:10, respectively, where the latter was used as a loading control. An equal ratio of rabbit and mouse HRP-conjugated secondary antibodies was used for detection. BTK protein levels were quantified relative to S-Actin loading levels and subsequently normalized to the DMSO control. Phosphorylated BTK levels were quantified using the Protein Normalization Assay Module for Jess (ProteinSimple) according to the manufacturer's protocol, using a protein concentration of 1.5 μg/μl and an antibody targeting pBTK (Y223) (Cell Signalling) diluted to 1:50. Phosphorylated BTK levels were quantified relative to the Protein Normalization Reagent and subsequently normalized to the DMSO control.

The mark [4] stands for this setting: compound concentration 10, 24 h.

Molecules are shown by their SMILES.

T1 sequence (Q06187 whole entry): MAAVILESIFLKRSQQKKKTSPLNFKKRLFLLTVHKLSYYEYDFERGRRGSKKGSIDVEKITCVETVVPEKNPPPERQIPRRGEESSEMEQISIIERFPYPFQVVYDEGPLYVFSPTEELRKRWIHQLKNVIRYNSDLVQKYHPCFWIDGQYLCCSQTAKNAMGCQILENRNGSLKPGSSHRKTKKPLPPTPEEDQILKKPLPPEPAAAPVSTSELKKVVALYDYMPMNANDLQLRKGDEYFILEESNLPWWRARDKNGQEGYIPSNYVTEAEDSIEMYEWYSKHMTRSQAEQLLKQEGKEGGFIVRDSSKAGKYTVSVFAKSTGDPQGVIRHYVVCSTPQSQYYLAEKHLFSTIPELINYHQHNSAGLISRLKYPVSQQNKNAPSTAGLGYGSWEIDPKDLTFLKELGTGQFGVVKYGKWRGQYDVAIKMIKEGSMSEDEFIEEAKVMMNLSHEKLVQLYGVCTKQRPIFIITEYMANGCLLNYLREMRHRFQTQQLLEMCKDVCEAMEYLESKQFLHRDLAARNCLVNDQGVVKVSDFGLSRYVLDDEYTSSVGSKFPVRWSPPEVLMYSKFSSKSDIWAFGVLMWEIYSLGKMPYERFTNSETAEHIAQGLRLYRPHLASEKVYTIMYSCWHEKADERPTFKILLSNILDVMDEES
Chain of EGFR (P00533 25-1210): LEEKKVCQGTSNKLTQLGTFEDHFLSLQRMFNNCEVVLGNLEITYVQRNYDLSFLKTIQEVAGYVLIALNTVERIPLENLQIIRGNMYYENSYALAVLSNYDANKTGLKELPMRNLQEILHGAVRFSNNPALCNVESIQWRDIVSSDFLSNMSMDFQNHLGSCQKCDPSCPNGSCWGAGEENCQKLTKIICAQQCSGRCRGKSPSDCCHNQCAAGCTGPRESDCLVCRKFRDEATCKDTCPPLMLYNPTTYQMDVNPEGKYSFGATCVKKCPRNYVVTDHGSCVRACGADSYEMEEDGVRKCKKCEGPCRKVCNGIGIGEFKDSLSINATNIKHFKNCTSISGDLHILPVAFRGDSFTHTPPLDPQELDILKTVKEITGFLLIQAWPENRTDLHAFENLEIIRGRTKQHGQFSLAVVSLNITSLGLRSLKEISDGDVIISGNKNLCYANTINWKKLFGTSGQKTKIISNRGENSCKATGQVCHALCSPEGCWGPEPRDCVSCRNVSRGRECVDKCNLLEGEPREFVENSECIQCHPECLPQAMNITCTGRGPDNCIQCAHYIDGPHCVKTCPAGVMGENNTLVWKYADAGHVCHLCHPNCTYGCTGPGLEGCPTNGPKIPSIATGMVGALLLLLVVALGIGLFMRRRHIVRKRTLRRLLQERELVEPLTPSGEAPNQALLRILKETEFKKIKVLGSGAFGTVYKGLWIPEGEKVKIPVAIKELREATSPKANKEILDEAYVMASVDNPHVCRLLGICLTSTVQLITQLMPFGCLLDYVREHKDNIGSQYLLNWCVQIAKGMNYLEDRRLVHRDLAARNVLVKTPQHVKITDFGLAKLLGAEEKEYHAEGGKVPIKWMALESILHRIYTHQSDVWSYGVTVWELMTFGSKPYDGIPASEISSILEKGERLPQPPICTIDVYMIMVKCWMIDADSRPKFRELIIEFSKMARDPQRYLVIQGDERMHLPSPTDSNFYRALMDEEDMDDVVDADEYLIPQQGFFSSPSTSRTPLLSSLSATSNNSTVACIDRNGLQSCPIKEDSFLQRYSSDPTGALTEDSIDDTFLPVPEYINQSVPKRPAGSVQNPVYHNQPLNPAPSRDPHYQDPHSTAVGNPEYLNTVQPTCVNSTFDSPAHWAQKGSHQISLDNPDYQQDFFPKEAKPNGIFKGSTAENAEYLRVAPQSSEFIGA
Chain of RIPK2 (O43353 whole entry, species assumed): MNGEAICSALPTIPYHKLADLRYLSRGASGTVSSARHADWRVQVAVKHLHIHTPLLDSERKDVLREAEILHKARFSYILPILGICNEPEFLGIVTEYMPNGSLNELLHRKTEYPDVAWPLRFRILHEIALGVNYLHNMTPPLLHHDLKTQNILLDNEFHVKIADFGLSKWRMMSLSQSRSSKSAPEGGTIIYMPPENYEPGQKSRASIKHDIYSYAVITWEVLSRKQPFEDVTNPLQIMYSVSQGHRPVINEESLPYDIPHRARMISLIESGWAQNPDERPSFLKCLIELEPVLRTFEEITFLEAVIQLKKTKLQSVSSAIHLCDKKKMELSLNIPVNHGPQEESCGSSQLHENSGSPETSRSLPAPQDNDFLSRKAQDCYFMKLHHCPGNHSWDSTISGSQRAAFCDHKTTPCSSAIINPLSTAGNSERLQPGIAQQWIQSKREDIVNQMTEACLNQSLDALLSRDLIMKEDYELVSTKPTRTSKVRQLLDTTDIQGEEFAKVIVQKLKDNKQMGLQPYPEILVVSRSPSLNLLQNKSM

By remaining activity is commonly meant the signal under treatment as a percentage of the control signal. With `Nc1ncnc2c1c(-c1ccc(Oc3ccccc3)cc1)nn2CCCNC(=O)c1c(F)c(F)c(F)c(F)c1S(N)(=O)=O` [Compound I-34, N-(3-(4-amino-3-(4-phenoxyphenyl)-1H-pyrazolo[3,4-d]pyrimidin-1-yl)propyl)-2,3,4,5-tetrafluoro-6-sulfamoylbenzamide], at BTK [1], the “Time-dependent inhibition of BTK: product formation versus pre-incubation time” value is “concentration-dependent first order loss of enzyme activity” and the “Time-dependent inhibition of BTK: IC50 values versus pre-incubation time” value is “decrease as pre-incubation times increase”. Moreover, on RIPK2, the remaining activity at 1 µM is above 90% and the remaining activity at 10 µM is above 90%. In addition, on BTK [2], the “pBTK inhibition (RAMOS, 24 h)” value was “X”. For the same compound, the “EGFR degradation (A549, 1 μM, 24 h)” value at EGFR is listed as “Y”. Also, the “EGFR degradation (A549, compound concentration, 24 h)” value on EGFR (setting [4]) is “Y”. Further, the “% BTK degradation (RAMOS, 24 h)” value at BTK [3] is “Y”.
For the compound `CN(C)S(=O)(=O)c1c(F)c(F)c(F)c(F)c1C(=O)NCCn1nc(-c2ccc(Oc3ccccc3)cc2)c2c(N)ncnc21` [Compound I-40, N-(2-(4-amino-3-(4-phenoxyphenyl)-1H-pyrazolo[3,4-d]pyrimidin-1-yl)ethyl)-2-(N,N-dimethylsulfamoyl)-3,4,5,6-tetrafluorobenzamide], on BTK [1], the “Time-dependent inhibition of BTK: product formation versus pre-incubation time” value is reported as “concentration-dependent first order loss of enzyme activity” and the “Time-dependent inhibition of BTK: IC50 values versus pre-incubation time” value was “decrease as pre-incubation times increase”. Moreover, on RIPK2, the remaining activity at 1 µM is above 90% and the remaining activity at 10 µM was above 90%. The “pBTK inhibition (RAMOS, 24 h)” value at BTK [2] was “X”. Moreover, the “EGFR degradation (A549, compound concentration, 24 h)” value at EGFR (compound concentration 5, 24 h) is reported as “Y”. Further, the “% BTK degradation (RAMOS, 24 h)” value on BTK [3] is “Y”.
Turning to `CN(CCn1nc(-c2ccc(Oc3ccccc3)cc2)c2c(N)ncnc21)C(=O)c1c(F)c(F)c(F)c(F)c1S(N)(=O)=O` [Compound I-33, N-(2-(4-amino-3-(4-phenoxyphenyl)-1H-pyrazolo[3,4-d]pyrimidin-1-yl)ethyl)-2,3,4,5-tetrafluoro-N-methyl-6-sulfamoylbenzamide], on BTK [1], the “Time-dependent inhibition of BTK: product formation versus pre-incubation time” value is reported as “concentration-dependent first order loss of enzyme activity” and the “Time-dependent inhibition of BTK: IC50 values versus pre-incubation time” value is “decrease as pre-incubation times increase”. On RIPK2, the remaining activity at 1 µM lay within 50 to 90% and the remaining activity at 10 µM is above 90%. Moreover, at BTK [2], the “pBTK inhibition (RAMOS, 24 h)” value is reported as “X”. In addition, the “EGFR degradation (A549, 1 μM, 24 h)” value on EGFR was “Y”. Moreover, the “EGFR degradation (A549, compound concentration, 24 h)” value at EGFR (setting [4]) was “Y”. The “% BTK degradation (RAMOS, 24 h)” value on BTK [3] is on record as “Y”.
In the case of `CS(=O)(=O)c1c(F)c(F)c(F)c(F)c1C(=O)NCCn1nc(-c2ccc(Oc3ccccc3)cc2)c2c(N)ncnc21` [Compound I-38, N-(2-(4-amino-3-(4-phenoxyphenyl)-1H-pyrazolo[3,4-d]pyrimidin-1-yl)ethyl)-2,3,4,5-tetrafluoro-6-(methylsulfonyl)benzamide], on BTK [1], the “Time-dependent inhibition of BTK: product formation versus pre-incubation time” value was “concentration-dependent first order loss of enzyme activity” and the “Time-dependent inhibition of BTK: IC50 values versus pre-incubation time” value is “decrease as pre-incubation times increase”. Besides, at RIPK2, the remaining activity at 1 µM was above 90% and the remaining activity at 10 µM is above 90%. For the same compound, at BTK [2], the “pBTK inhibition (RAMOS, 24 h)” value is listed as “X”. Moreover, the “EGFR degradation (A549, 1 μM, 24 h)” value on EGFR is “Y”. The “EGFR degradation (A549, compound concentration, 24 h)” value on EGFR (setting [4]) was “Y”. Further, the “% BTK degradation (RAMOS, 24 h)” value at BTK [3] is “Y”.
Turning to `C[S@+]([O-])c1c(F)c(F)c(F)c(F)c1C(=O)N1CC(n2nc(-c3ccc(Oc4ccccc4)cc3)c3c(N)ncnc32)C1` (racemic) [Compound I-37, (3-(4-amino-3-(4-phenoxyphenyl)-1H-pyrazolo[3,4-d]pyrimidin-1-yl)azetidin-1-yl)(2,3,4,5-tetrafluoro-6-(methylsulfinyl)phenyl)methanone], on BTK [1], the “Time-dependent inhibition of BTK: product formation versus pre-incubation time” value is listed as “concentration-dependent first order loss of enzyme activity” and the “Time-dependent inhibition of BTK: IC50 values versus pre-incubation time” value was “decrease as pre-incubation times increase”. Also, on RIPK2, the remaining activity at 1 µM fell in the range of 50 to 90% and the remaining activity at 10 µM was above 90%. Also, at BTK [2], the “pBTK inhibition (RAMOS, 24 h)” value is “X”. For the same compound, the “EGFR degradation (A549, 1 μM, 24 h)” value at EGFR was “Y”. For the same compound, the “EGFR degradation (A549, compound concentration, 24 h)” value on EGFR (setting [4]) is on record as “Y”. The “% BTK degradation (RAMOS, 24 h)” value on BTK [3] was “Y”.
For `CN(C)S(=O)(=O)c1c(F)c(F)c(F)c(F)c1C(=O)NCCCn1nc(-c2ccc(Oc3ccccc3)cc2)c2c(N)ncnc21` [Compound I-41, N-(3-(4-amino-3-(4-phenoxyphenyl)-1H-pyrazolo[3,4-d]pyrimidin-1-yl)propyl)-2-(N,N-dimethylsulfamoyl)-3,4,5,6-tetrafluorobenzamide], at RIPK2, the remaining activity at 1 µM is above 90% and the remaining activity at 10 µM is above 90%. Moreover, the “pBTK inhibition (RAMOS, 24 h)” value on BTK [2] is “X”. For the same compound, on EGFR, the “EGFR degradation (A549, 1 μM, 24 h)” value is listed as “Y”. In addition, the “EGFR degradation (A549, compound concentration, 24 h)” value at EGFR (compound concentration 5, 24 h) is “Y”. For the same compound, the “% BTK degradation (RAMOS, 24 h)” value on BTK [3] was “Y”.
With `C[S+]([O-])c1c(F)c(F)c(F)c(F)c1C(=O)N1CCC[C@@H](n2nc(-c3ccc(Oc4ccccc4)cc3)c3c(N)ncnc32)C1` (stereo partly drawn) [Compound I-36, ((R)-3-(4-amino-3-(4-phenoxyphenyl)-1H-pyrazolo[3,4-d]pyrimidin-1-yl)piperidin-1-yl)(2,3,4,5-tetrafluoro-6-(methylsulfinyl)phenyl)methanone], on RIPK2, the remaining activity at 1 µM was above 90% and the remaining activity at 10 µM was above 90%. Further, the “pBTK inhibition (RAMOS, 24 h)” value on BTK [2] is recorded as “X”. In addition, the “EGFR degradation (A549, 1 μM, 24 h)” value at EGFR is “Y”. Moreover, the “EGFR degradation (A549, compound concentration, 24 h)” value on EGFR (setting [4]) was “Y”. Moreover, the “% BTK degradation (RAMOS, 24 h)” value at BTK [3] was “Y”.
